Measured values as given in patent US20110301155A1, “INDAZOLE COMPOUNDS FOR ACTIVATING GLUCOKINASE” (priority 2007, published 2011).

Each compound was assayed against T1, GK (recombinant glucokinase, residues 12-465 of the human enzyme) (Homo sapiens, UniProt P35557) (assay: Determination of GK activity value (luminescence assay)). Details: calculated maximal gain in GK enzyme activity at saturating compound concentration; 5 mM glucose, 5 μM ATP.
T1 construct: FLAG (C-terminal tag of vector pFLAG-CTC; only the vector is printed) (C); made in house; host or cells: Escherichia coli DH10b-T1r (pFLAG-CTC plasmid)
T1 sequence (P35557 12-465): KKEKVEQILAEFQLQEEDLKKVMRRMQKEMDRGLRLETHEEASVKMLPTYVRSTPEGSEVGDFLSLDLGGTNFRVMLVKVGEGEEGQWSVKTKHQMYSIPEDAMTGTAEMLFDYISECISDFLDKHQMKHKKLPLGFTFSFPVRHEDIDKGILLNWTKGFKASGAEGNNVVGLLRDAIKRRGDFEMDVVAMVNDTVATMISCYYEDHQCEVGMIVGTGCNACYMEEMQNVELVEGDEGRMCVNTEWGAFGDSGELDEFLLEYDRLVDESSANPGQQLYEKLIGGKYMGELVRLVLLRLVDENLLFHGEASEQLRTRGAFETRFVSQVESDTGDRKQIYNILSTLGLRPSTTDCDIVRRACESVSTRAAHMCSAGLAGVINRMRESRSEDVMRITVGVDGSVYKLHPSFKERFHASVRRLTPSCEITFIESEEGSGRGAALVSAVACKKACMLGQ
Format: biochemical
Text: DNA encoding residues 12-465 of the full-length sequence of the human enzyme may be amplified by PCR and cloned into the HindIII and EcoRI sites of pFLAG-CTC (Sigma). SEQ.I.D. No. 1 corresponds to residues 12-465 of glucokinase.
The expression of recombinant glucokinase protein may be carried out by transformation and growth of DH10b-T1r E. coli cells incorporating the (pFLAG-CTC) plasmid in LB media. Protein expression can be induced in this system by the addition of IPTG to the culture medium.
Recombinant protein may be isolated from cellular extracts by passage over Sepharose Q Fast Flow resin (Pharmacia). This partially purified GK extract may then be further purified by a second passage over Poros HQ10 (Applied Biosystems). The purity of GK may be determined on denaturing SDS-PAGE gel. Purified GK may then be concentrated to a final concentration of 20.0 mg/ml. After flash freezing in liquid nitrogen, the proteins can be stored at −78° C. in a buffer containing 25 mM TRIS-HCl pH 7.6, 50 mM NaCl, and 0.5 mM TCEP.
The activation properties of compounds for GK may be determined using a black 384-well-plate format under the following reaction conditions: 25 mM Hepes pH 7.2, 25 mM NaCl, 10 mM MgCl2, 0.01% Brij35, 1 mM DTT, 5 μM ATP, 5 mM Glucose 2% DMSO. The amount of ATP consumed may be determined quantitatively by addition of equal volume of luciferase reagent (luciferase+beetle luciferin—KinaseGlo Luminescent Kinase Assay kit from Promega). The luminescence intensity may be measured by using the Analyst HT from LJL Biosystems.
The assay reaction may be initiated as follows: 4 μl of substrate mixture (12.5 μM ATP and 12.5 mM Glucose) was added to each well of the plate, followed by the addition of 2 μl of activator (2 fold serial dilutions for 11 data points for each activator) containing 10% DMSO. 4 μL of 1.25 nM GK solution obtained in Reference Example 3A may be added to initiate the reaction. The reaction mixture may then be incubated at room temperature for 60 min, and quenched and developed by addition of 10 μL of luciferase reagent. Luminescence intensities of the resulting reaction mixtures may be measured after a 10 min incubation at room temperature. The luminescence intensity may be measured by using the Analyst HT from LJL Biosystems.
% ACTmax values may be calculated by non-linear curve fitting of the compound concentrations and luminescence intensities to a standard inhibition/activation equation. % ACTmax represents the calculated maximal gain in GK enzyme activity at a saturating concentration of the compound. % ACTmax values for select compounds of the present invention are given in Table 2.

% ACTmax [%]	SMILES
24.1	Cn1ccc(Nc2nn(C)c3c(Oc4ccc(S(C)(=O)=O)cc4)cc(-c4ncccc4Cl)cc23)n1 [Example 134, 5-(3-chloropyridin-2-yl)-1-methyl-N-(1-methyl-1H-pyrazol-3-yl)-7-(4-(methylsulfonyl)phenoxy)-1H-indazol-3-amine]
146.3	CC(C)Oc1cc(Oc2ccc(S(C)(=O)=O)cc2)c2[nH]nc(Nc3ccn(C)n3)c2c1 [Example 133, 5-isopropoxy-N-(1-methyl-1H-pyrazol-3-yl)-7-(4-(methylsulfonyl)phenoxy)-1H-indazol-3-amine]
146.5	COCC(O)Cn1ccc(Nc2n[nH]c3c(Oc4ccc(S(C)(=O)=O)cc4)cc(-c4ncccc4Cl)cc23)n1 (stereo not shown) [Example 140, 1-(3-(5-(3-chloropyridin-2-yl)-7-(4-(methylsulfonyl)phenoxy)-1H-indazol-3-ylamino)-1H-pyrazol-1-yl)-3-methoxypropan-2-ol]
147.8	CS(=O)(=O)c1ccc(Oc2cc(-c3ncccc3Cl)cc3c(Nc4ccn(CC(O)CO)n4)n[nH]c23)cc1 (stereo not shown) [Example 131, 3-(3-(5-(3-chloropyridin-2-yl)-7-(4-(methylsulfonyl)phenoxy)-1H-indazol-3-ylamino)-1H-pyrazol-1-yl)propane-1,2-diol]
